In patent US20260159512A1, “BCAT2 INHIBITORS” (AGIOS PHARMACEUTICALS, INC., priority 2021, published 2026):
“And” between values parts separate entries of the source, which are not always exact repeats. Equal entries are not always repeated.

What was measured:
Conditions in all cases: average where tested multiple times
BCAT2 [1] = molecular target: T1, BCAT2 (Homo sapiens, UniProt O15382); test: BCAT2 in vitro cell inhibition using engineered A549 cells (KMV cell assay, 13C6-KMV by LC-MS/MS); format: cell-based; parameters: The result was an engineered A549 cell line that expressed endogenous BCAT2; endogenous in cells; host or cells: A549 cells with MUT and BCAT1 knocked out by CRISPR/CAS9; key to BCAT2 Cell Inhibition: A: less than or equal to 0.100 μM; B: greater than 0.100 and less than or equal to 0.500 μM; C: greater than 0.500 and less than or equal to 1.000 μM; d: greater than 1.000 μM; E: no fit
T1 sequence (O15382 28-392): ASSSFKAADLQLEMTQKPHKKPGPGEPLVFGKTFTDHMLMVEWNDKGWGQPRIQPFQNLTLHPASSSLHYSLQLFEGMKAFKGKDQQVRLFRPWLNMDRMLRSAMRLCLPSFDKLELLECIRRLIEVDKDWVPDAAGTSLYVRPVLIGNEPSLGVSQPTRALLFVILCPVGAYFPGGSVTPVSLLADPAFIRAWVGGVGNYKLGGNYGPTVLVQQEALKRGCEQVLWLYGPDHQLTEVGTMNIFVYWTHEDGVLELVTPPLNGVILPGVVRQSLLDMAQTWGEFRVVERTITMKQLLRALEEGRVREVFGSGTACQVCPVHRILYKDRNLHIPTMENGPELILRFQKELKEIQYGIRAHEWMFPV

BCAT2 [2] = molecular target: T1, BCAT2; test: BCAT2 in vitro enzyme inhibition assay (resazurin/diaphorase-coupled fluorescence); format: biochemical
Method in brief: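 Coupled fluorescence readout: glutamate formed from L-leucine/α-ketoglutarate transamination drives GDH/NAD/diaphorase reduction of resazurin (Ex 540/Em 590). Human BCAT2 was first exposed 1 h at room temperature to compound, top final 100 μM in 3-fold, 10-point series; substrate reaction ran 1 h before SDS quench, in technical duplicate with DMSO max and enzyme-free min controls.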

hBCAT1 = molecular target: T2, hBCAT1 (Homo sapiens, UniProt P54687); test: BCAT1 in vitro enzyme inhibition assay (resazurin/diaphorase-coupled fluorescence); format: biochemical
T2 sequence (P54687 1-386): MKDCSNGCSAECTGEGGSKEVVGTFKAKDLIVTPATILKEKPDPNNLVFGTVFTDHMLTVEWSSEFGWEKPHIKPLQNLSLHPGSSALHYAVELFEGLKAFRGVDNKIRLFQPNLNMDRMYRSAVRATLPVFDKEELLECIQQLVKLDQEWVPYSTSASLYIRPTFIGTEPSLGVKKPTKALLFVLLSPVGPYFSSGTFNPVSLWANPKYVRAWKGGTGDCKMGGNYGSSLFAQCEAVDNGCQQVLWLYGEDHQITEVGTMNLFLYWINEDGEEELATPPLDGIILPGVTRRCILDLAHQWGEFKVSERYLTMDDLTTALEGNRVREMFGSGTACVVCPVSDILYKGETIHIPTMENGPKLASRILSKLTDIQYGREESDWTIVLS
Method in brief: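 Human BCAT1 activity read by resazurin/diaphorase-coupled fluorescence. Compounds added from 50× DMSO stocks at 1:50, giving 10-point 3-fold titrations from 100 μM top final concentration. Run in technical duplicate; repeat tests averaged.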

| Structure (SMILES) | IC50 (BCAT2 [1]) | IC50 (BCAT2 [2]) | IC50 (hBCAT1) | BCAT2 Cell Inhibition (BCAT2 [1]) |
| --- | --- | --- | --- | --- |
| O=C(N[C@H]1CCC[C@@H](n2c(COC(F)(F)F)nc3cnc(-c4nc[nH]n4)cc32)C1)c1ncc(Cl)s1 [Example 313, N-((1S,3R)-3-(6-(1H-1,2,4-triazol-3-yl)-2-((trifluoromethoxy)methyl)-1H-imidazo[4,5-c]pyridin-1-yl)cyclohexyl)-5-chlorothiazole-2-carboxamide] | ≤ 100 nM | ≤ 100 nM | < 500 nM |  |
| CS(=O)(=O)N1C[C@H](NC(=O)c2ncc(Cl)s2)C[C@H](n2c(-c3ccccc3F)nc3cnc(-c4nc[nH]n4)cc32)C1 [Example 460, 5-chloro-N-((3R,5S)-5-(2-(2-fluorophenyl)-6-(1H-1,2,4-triazol-3-yl)-1H-imidazo[4,5-c]pyridin-1-yl)-1-(methylsulfonyl)piperidin-3-yl)thiazole-2-carboxamide] | ≤ 100 nM | ≤ 100 nM | < 500 nM |  |
| O=C(N[C@H]1CCCC[C@@H](n2c(-c3ccccc3F)nc3cnc(-c4nnc[nH]4)cc32)C1)c1ncc(Cl)s1 (single isomer, unassigned) [Example 88, 5-chloro-N-(3-(2-(2-fluorophenyl)-6-(4H-1,2,4-triazol-3-yl)-1H-imidazo[4,5-c]pyridin-1-yl)cycloheptyl)thiazole-2-carboxamide] | ≤ 100 nM | ≤ 100 nM | < 500 nM |  |
| CC(C)Cc1nc2cnc(-n3ccc(N)n3)cc2n1[C@@H]1CCC[C@H](NC(=O)c2ncc(Cl)s2)C1 [Example 334, N-((1S,3R)-3-(6-(3-amino-1H-pyrazol-1-yl)-2-isobutyl-1H-imidazo[4,5-c]pyridin-1-yl)cyclohexyl)-5-chlorothiazole-2-carboxamide] | 500 to 1000 nM | ≤ 100 nM | < 500 nM |  |
| CC(=O)N1CC(NC(=O)c2ncc(C(F)F)s2)CC(n2c(-c3ccccc3F)nc3cnc(-c4ncco4)cc32)C1 (stereo not drawn) [Example 126, N-(1-acetyl-5-(2-(2-fluorophenyl)-6-(oxazol-2-yl)-1H-imidazo[4,5-c]pyridin-1-yl)piperidin-3-yl)-5-(difluoromethyl)thiazole-2-carboxamide] | ≤ 100 nM | ≤ 100 nM | < 500 nM |  |
| O=C(N[C@H]1CCC[C@@H](n2c(-c3ccccc3F)nc3cnc(N4CCC(O)C4)cc32)C1)c1ncc(Cl)s1 (stereo partly drawn) [Example 199, 5-chloro-N-((1S,3R)-3-(2-(2-fluorophenyl)-6-(3-hydroxypyrrolidin-1-yl)-1H-imidazo[4,5-c]pyridin-1-yl)cyclohexyl)thiazole-2-carboxamide] | > 1000 nM | ≤ 100 nM | > 5000 nM |  |
| COc1cc2c(cn1)nc(-c1ccccc1F)n2[C@@H]1C[C@@H](O)C[C@H](NC(=O)c2ncc(Cl)s2)C1 [Example 278, 5-chloro-N-((1R,3S,5S)-3-(2-(2-fluorophenyl)-6-methoxy-1H-imidazo[4,5-c]pyridin-1-yl)-5-hydroxycyclohexyl)thiazole-2-carboxamide] | 100 to 500 nM | ≤ 100 nM | < 500 nM |  |
| CC(C)C(F)c1nc2cnc(-c3ccccn3)cc2n1[C@@H]1CCC[C@H](NC(=O)c2ncc(Cl)s2)C1 (stereo partly drawn) [Example 322, 5-chloro-N-((1S,3R)-3-(2-(1-fluoro-2-methylpropyl)-6-(pyridin-2-yl)-1H-imidazo[4,5-c]pyridin-1-yl)cyclohexyl)thiazole-2-carboxamide] | 500 to 1000 nM | ≤ 100 nM | 1000 to 5000 nM |  |
| C#Cc1cnc(C(=O)N[C@H]2CCC[C@@H](n3c(-c4ccccn4)nc4cnc(-n5nccn5)cc43)C2)s1 [Example 20, 5-ethynyl-N-((1S,3R)-3-(2-(pyridin-2-yl)-6-(2H-1,2,3-triazol-2-yl)-1H-imidazo[4,5-c]pyridin-1-yl)cyclohexyl)thiazole-2-carboxamide] | ≤ 100 nM | ≤ 100 nM | < 500 nM |  |
| CS(=O)(=O)N1C[C@H](NC(=O)c2ccc(Cl)s2)C[C@H](n2c(-c3ccccc3F)nc3cnc(-c4nc[nH]n4)cc32)C1 [Example 458, 5-chloro-N-((3R,5S)-5-(2-(2-fluorophenyl)-6-(1H-1,2,4-triazol-3-yl)-1H-imidazo[4,5-c]pyridin-1-yl)-1-(methylsulfonyl)piperidin-3-yl)thiophene-2-carboxamide] | ≤ 100 nM | ≤ 100 nM | < 500 nM |  |

More lines, now with the values ahead:

| IC50 (BCAT2 [1]) | IC50 (BCAT2 [2]) | IC50 (hBCAT1) | BCAT2 Cell Inhibition (BCAT2 [1]) | Structure (SMILES) |
| --- | --- | --- | --- | --- |
|  | 100 to 500 nM | > 5000 nM | E | O=C(N[C@H]1CCC[C@@H](n2c(-c3ncccc3F)nc3cnc(N4CCCC4=O)cc32)C1)c1ncc(C(F)F)s1 [Example 49, 5-(difluoromethyl)-N-((1S,3R)-3-(2-(3-fluoropyridin-2-yl)-6-(2-oxopyrrolidin-1-yl)-1H-imidazo[4,5-c]pyridin-1-yl)cyclohexyl)thiazole-2-carboxamide] |
| > 1000 nM | ≤ 100 nM | > 5000 nM and 1000 to 5000 nM |  | CC(=O)N1CC(NC(=O)c2ccc(Br)s2)CC(n2c(-c3ncccc3F)nc3cc(-c4nnco4)ccc32)C1 (stereo not drawn) [Example 283, N-(1-acetyl-5-(2-(3-fluoropyridin-2-yl)-5-(1,3,4-oxadiazol-2-yl)-1H-benzo[d]imidazol-1-yl)piperidin-3-yl)-5-bromothiophene-2-carboxamide] |
| ≤ 100 nM | ≤ 100 nM | < 500 nM |  | COC(=O)N1C[C@H](NC(=O)c2ccc(Cl)s2)C[C@H](n2c(-c3ccccc3F)nc3cnc(-c4nc[nH]n4)cc32)C1 [Example 462, methyl (3R,5S)-3-(5-chlorothiophene-2-carboxamido)-5-(2-(2-fluorophenyl)-6-(1H-1,2,4-triazol-3-yl)-1H-imidazo[4,5-c]pyridin-1-yl)piperidine-1-carboxylate] |
| ≤ 100 nM | ≤ 100 nM | < 500 nM |  | O=C(N[C@H]1CCC[C@@H](n2c(-c3ccccn3)nc3cnc(-n4nccn4)cc32)C1)c1ccc(Br)s1 [Example 11, 5-bromo-N-((1S,3R)-3-(2-(pyridin-2-yl)-6-(2H-1,2,3-triazol-2-yl)-1H-imidazo[4,5-c]pyridin-1-yl)cyclohexyl)thiophene-2-carboxamide] |
|  | 100 to 500 nM | > 5000 nM | E | O=C(N[C@H]1CCC[C@@H](n2c(-c3ccccn3)nc3cnc(-n4cncn4)cc32)C1)c1ncc(C(F)F)s1 [Example 26, 5-(difluoromethyl)-N-((1S,3R)-3-(2-(pyridin-2-yl)-6-(1H-1,2,4-triazol-1-yl)-1H-imidazo[4,5-c]pyridin-1-yl)cyclohexyl)thiazole-2-carboxamide] |
| > 1000 nM | ≤ 100 nM | 500 to 1000 nM |  | CC(C)Cc1nc2cnc(-c3ccn(C(F)F)n3)cc2n1[C@@H]1CCC[C@H](NC(=O)c2ncc(Cl)s2)[C@H]1O [Example 230, 5-chloro-N-((1S,2R,3R)-3-(6-(1-(difluoromethyl)-1H-pyrazol-3-yl)-2-isobutyl-1H-imidazo[4,5-c]pyridin-1-yl)-2-hydroxycyclohexyl)thiazole-2-carboxamide] |
| ≤ 100 nM | ≤ 100 nM | < 500 nM |  | O=C(NC1CCCC(n2c(-c3ncccc3F)nc3cnc(-c4ccccn4)cc32)C1O)c1ncc(Cl)s1 (stereo not drawn) [Example 220, 5-chloro-N-(3-(2-(3-fluoropyridin-2-yl)-6-(pyridin-2-yl)-1H-imidazo[4,5-c]pyridin-1-yl)-2-hydroxycyclohexyl)thiazole-2-carboxamide] |
| ≤ 100 nM | ≤ 100 nM | < 500 nM |  | O=C(N[C@H]1C[C@H](O)C[C@@H](n2c(-c3ccccc3F)nc3cnc(-c4ccn[nH]4)cc32)C1)c1ncc(Cl)s1 (single isomer, unassigned) [Example 258] |
| 100 to 500 nM | ≤ 100 nM | 1000 to 5000 nM |  | Cc1cccnc1-c1cc2c(cn1)nc(-c1ccccc1F)n2[C@@H]1CCC[C@H](NC(=O)c2ncc(Cl)s2)C1 [Example 161, 5-chloro-N-((1S,3R)-3-(2-(2-fluorophenyl)-6-(3-methylpyridin-2-yl)-1H-imidazo[4,5-c]pyridin-1-yl)cyclohexyl)thiazole-2-carboxamide] |
